Data set [1] deals with CCRF-CEM ARAC-8C cells (Gem-resistant human acute lymphoblastic leukemia). Nature of the data set: Therapeutic effect under ionizing radiation: cell viability by trypan blue cell count. In kind it is cell-based. The protocol: Just before the experiment, the cells (CCRF-CEM ARAC-8C) were dispersed in PBS and transferred to a 48-well microplate (TPP cell culture microplates purchased from Thermo Fisher Scientific, France) (40,000 cells in 80 μL/well). Gem (20 μL, final concentration 0.1 μM) or PBS (20 μL) and cis-GdAzo compound (100 μL, final concentration 0 μM, 250 μM, 500 μM or 850 μM) were added just prior to gamma irradiation of the medium (2 Gy). The medium was maintained in the dark and in a humid atmosphere at 37° C. with 5% CO2 for 1 h. Next, culture medium (600 μL) was added to each well and the cells were washed by three centrifugation cycles (300 G, 5 min, 800 μL of culture medium used for each wash). The cells were finally dispersed in culture medium (600 μL) containing or not containing Gem (final concentration 0 μM or 0.1 μM) and were maintained in a humid atmosphere at 37° C. with 5% CO2 for 4 days. The number of live cells was determined by cell count in the presence of 1:1 (v/v) trypan blue (triplicate). The experiment was repeated three times independently. Cell viability was expressed as the ratio of the number of living cells after treatment to the number of living cells without any treatment (without irradiation, in the absence of Gem and cis-GdAzo). A similar procedure was used for the control experiment without irradiation except that the 48-well microplate was not irradiated with gamma rays. A similar procedure was used for the control experiment with Dotarem® (FIG. 2f) except that Dotarem® was used instead of cis-GdAzo. The cis-GdAzo compound was obtained by UV irradiation (365 nm, 0.817 mW·cm−2, 30 min) of the trans-GdAzo compound (105 μL, 500 μM, 1 mM or 1.7 mM, cis-GdAzo>85%) in a 96-well microplate.

Data set [2] in a line: Quantification of ionizing-radiation-induced isomerization (molecular activation) by HPLC. The class given is physicochemical. The protocol: Gamma ray irradiation. Gamma irradiation was performed with a Cesium-137 source (IBL 637) providing 662 keV photons at a dose rate of approximately 1 Gy/min. Radiation doses are expressed in Gray ([…]).
Gd-containing compounds (GdAzo or GdFAzo) and control compounds (Azo or FAzo) (50 μM, 200 μL, PBS) were introduced into two 96-well microplates (10 wells for each compound). Both microplates were first irradiated under UV light (365 nm, 0.817 mW·cm^−2, 5 min). One microplate (plate 1) was then kept in the dark and used as a non-irradiated control while the second (plate 2) was irradiated with an increment of ionizing radiation doses (2 Gy, 3 Gy, 5 Gy and 10 Gy). After each irradiation, absorbance spectrophotometric and HPLC injection (method C) analyses were performed on the non-irradiated (plate 1) and irradiated (plate 2) compounds. A 26 min time lag between UV irradiation of plates 1 and 2 was used to allow analysis of the unirradiated control compounds (plate 1) at the same time as the ionizing irradiated compounds (plate 2) after UV irradiation. […] The absorbance spectra were plotted by the mean of triplicates. The relative amount of each isomer was obtained by HPLC (detection at the isosbestic point wavelength under elution conditions) and the molecular activation (%) was determined by the difference in the proportion of trans isomer in the medium (3 independent experiments).

The nature of data set [3]: Thermal relaxation of the compound. In kind it is physicochemical.
The test system of data set [4] is Cells (PANC-1). As to the kind of experiment: Confocal microscopy in the presence of ionizing radiation: cell permeabilization (propidium iodide). In kind it is cell-based, human. Here is the method: Cells (PANC-1) were transferred to an imaging plate (Lab-Tek chamber slide system, glass, 8-well purchased from Thermo Fisher Scientific, France) 24 h before the start of the experiment, and were maintained in culture medium (10,000 cells in 200 μL/well) in a humid atmosphere at 37° C. with 5% CO2. Just before the experiment, the cell medium was replaced with PBS (100 μL) and IP (5 μL, final concentration 1 μM) was added to the medium. 15 min after the addition of PI, cis-GdAzo (100 μL, final concentration 0 μM, 250 μM, 500 μM or 850 μM) was introduced into the cell medium. A first series of images was acquired at this stage, and then the imaging plate was irradiated (gamma rays, 2 Gy). The imaging plate was then kept in the dark at 37° C. (plate warmer) and images were acquired every 5 min for 30 min and then every 10 min for 90 min. A similar procedure was used for the control experiment without irradiation except that the imaging plate was not irradiated with gamma rays. The cis-GdAzo compound was obtained by UV irradiation (365 nm, 0.817 mW·cm^−2, 30 min) of the trans-GdAzo compound (105 μL, 500 μM, 1 mM or 1.7 mM, cis-GdAzo>85%) in a 96-well microplate. […] The instrument was equipped with a laser diode at 561 nm as excitation wavelength. The red fluorescence emission was collected over a bandwidth of 598-672 nm and the transmission images were obtained with a white diode. The pinhole was set at 50 μm and the magnification lens at 1.2. The images were recorded by an e-Volve s-CMOS camera (Photometrics). Four images were recorded per well and two wells were used for each concentration of cis-GdAzo. Analysis of the 16-bit digital images was performed using ImageJ software (version 1.50i with the Adjustable Watershed plugin). The number of cells in the images acquired before irradiation was determined manually and the number of fluorescent cells in the images acquired before and after irradiation was calculated automatically using a script coded on ImageJ. Cell permeabilization was determined by the difference in the proportion of fluorescent cells before and 30 min after gamma irradiation (3 independent experiments).

As for `CNC[C@H](O)[C@@H](O)[C@H](O)[C@H](O)CO.O=C([O-])CN1CCN(CC(=O)[O-])CCN(CC(=O)O)CCN(CC(=O)[O-])CC1.[Gd+3]` [Dotarem®, reference compound], the “therapeutic effect under ionizing radiation” value in data set [1] (gamma irradiation (2 Gy), with or without Gem (0.1 μM), FIG. 2f) is recorded as “no therapeutic effect”.

In the case of “Gadolinium 2,6-difluoro-4-(N-(1,4,7,10-tetraazacyclododecane-1,4,7-triacetic acid-10-glutaryl)-ethoxyamine)-2′,6′-difluoro-4′-butoxyazobenzene [GdFAzo]”, the “activation of the compound compared to GdAzo” value in data set [2] (in vitro experimental conditions, FIG. 1c) is reported as “relatively low”. For the same compound, the “activation by ionizing radiation” value in data set [2] (ionizing radiation (X-rays, gamma rays, electrons), FIGS. 1a-f) was “can also be activated”. Moreover, the thermal relaxation entry in data set [3] was “slow enough”.

Take “Gadolinium 4-(N-(1,4,7,10-tetraazacyclododecane-1,4,7-triacetic acid-10-glutaryl)-ethoxyamine)-4′-butoxyazobenzene [GdAzo]”: the cell permeabilization in data set [4] (250 μM, gamma rays at 2 Gy, 30 min after irradiation) was 6.9%; in data set [4] (250 μM, without irradiation), 1.2%; in data set [4] (500 μM, gamma rays at 2 Gy, 30 min after irradiation) it was 8.2%; in data set [4] (500 μM, without irradiation) it was 2.8%; in data set [4] (850 μM, gamma rays at 2 Gy, 30 min after irradiation), 12.4%; in data set [4] (850 μM, without irradiation), 7.5%. Moreover, the “cell viability 4 days after treatment” value in data set [1] (250 μM, absence of gemcitabine, gamma radiation at 2 Gy) was determined as 23%; in data set [1] (250 μM, absence of gemcitabine, without irradiation) it was 79%; in data set [1] (250 μM, presence of gemcitabine (0.1 μM), gamma radiation at 2 Gy) it was 15%; in data set [1] (250 μM, presence of gemcitabine (0.1 μM), without irradiation), 49%; in data set [1] (500 μM, absence of gemcitabine, gamma radiation at 2 Gy) it was 18%; in data set [1] (500 μM, absence of gemcitabine, without irradiation) it was 42%. Also, the “cell viability 4 days after treatment” value in data set [1] (500 μM, presence of gemcitabine (0.1 μM), gamma radiation at 2 Gy) is on record as 9.1%; in data set [1] (500 μM, presence of gemcitabine (0.1 μM), without irradiation) it was 30%; in data set [1] (850 μM, absence of gemcitabine, gamma radiation at 2 Gy) it was 3.0%; in data set [1] (850 μM, absence of gemcitabine, without irradiation), 27%; in data set [1] (850 μM, presence of gemcitabine (0.1 μM), gamma radiation at 2 Gy), 1.2%; in data set [1] (850 μM, presence of gemcitabine (0.1 μM), without irradiation) it was 16%.

The values above are taken from patent US12414991B2, “Azobenzene derivatives, process for their preparation and their use for therapeutic treatment associated with ionizing radiations” (CENTRE NATIONAL DE LA RECHERCHE SCIENTIFIQUE, priority 2019, dated 2025).
